This note sets out measurements from publication PMC7816196, “Antitubercular 2-Pyrazolylpyrimidinones: Structure–Activity Relationship and Mode-of-Action Studies” (Journal of Medicinal Chemistry, 2021).

Holding throughout (format): cell-based, Mycobacterium tuberculosis
Test [1] deals with MmpL3 F255L.
For test [2], the system named is MmpL3 G596R.
The subject of test [3] is MmpL3 V681.

As for `CC(=O)Nc1cc(C)nn1-c1nc(-c2ccccc2)cc(=O)[nH]1` [Compound 15, N-(3-Methyl-1-(4-oxo-6-phenyl-1,4-dihydropyrimidin-2-yl)-1H-pyrazol-5-yl)acetamide], the “MmpL3 F255L MIC” value in test [1] was above 200 µM. Further, the “MmpL3 G596R MIC” value in test [2] is above 200 µM. In addition, the “MmpL3 V681 MIC” value in test [3] is above 200 µM.
In the case of `Cc1cc(Nc2ccc(F)cc2)n(-c2nc(C(F)(F)F)cc(=O)[nH]2)n1` [Compound 40, 2-(5-((4-Fluorophenyl)amino)-3-methyl-1H-pyrazol-1-yl)-6-(trifluoromethyl)pyrimidin-4(3H)-one], the “MmpL3 F255L MIC” value in test [1] is above 200 µM.
